Like-named read-outs stand apart in the source and are kept apart here.
How the values were obtained:
Assay in all cases: microbe, parasite or virus in culture
[1] = tested on: T1, Saccharomyces cerevisiae S. c.^d (wild-type CVX12-3A); design: species or system yeast; micro tube dilution MIC in YES (± 1.2 M sorbitol), complete growth inhibition by turbidity; conditions: 48 h
T1 construct: CVX12-3A
Experimental: (§1) Standard YEPD (Yeast Extract, Peptone, Dextrose) ([Sherman, 1990]), YEPD+S (YEPD with 1.2M sorbitol), YES (Yeast Extract, Dextrose and Supplements of Adenine, Histidine, Leucine, Uracil and Lysine) ([Alfa et al., 1993]) and YES+S (YES with 1.2 M sorbitol) ([Ribas et al., 1991]; [Ishiguro et al., 1997]), media were used for determination of MIC values of the tested compounds. A stock solution of 10 mg/ml of each tested compounds was prepared in DMSO and serial dilutions in DMSO were prepared. The final concentration of DMSO was 2% in the YEPD medium. […] The serial dilutions of compounds were dispensed into test tubes with 1 ml of YEPD or YEPD+S to make final concentrations of 200, 100, 50, 25, 12.5, 6.26, 3.125, 1.6, 0.8 and 0.4 μg/ml. The tested yeast strains were previously grown in YEPD, YEPD+S, YES or YES+S agar plates at 30°C for 48 h. Micro-culture assays of large numbers of samples were analyzed as described) ([Martins et al., 2011]). Essentially early log-phase cells were grown in YEPD, YEPD+S, YES or YES+S (1.2 M sorbitol) medium at 30°C, and diluted to cell density of 4 X 10^6 cells/ml in YEPD, YEPD+S, YES or YES+S medium and aliquots of 100 μl were dispensed into each small test tube (3 ml test tube size). Then, another 100 μl of YEPD, YEPD+S, YES or YES+S with the corresponding dilution of each compound at 2X concentration (4% DMSO) was added. The final volume was 200 μl, with the cells diluted to of 2 X 10^6 cells/ml and each compound diluted to 1X final concentration, containing increasing concentrations of antifungal (0, 1, 2, 5, 10, 20, 50, 100 and 200 μg/ml) or an equivalent volume of solvent (2% DMSO). The cells were grown at 30°C in an orbital roller and turbidity was analyzed after 24 and 48 h of incubation. The MIC was determined as the minimal concentration of tested compound that produced complete cell growth inhibition and kept the medium clear. The MIC values were calculated from at least three independent experiments.

[2] = tested on: Candida albicans C. a.^f (Tables 5, 6); design: species or system yeast; micro tube dilution MIC in YES (± 1.2 M sorbitol), complete growth inhibition by turbidity; conditions: 48 h
Experimental: as §1

[3] = tested on: T2, Schizosaccharomyces pombe S. p.^a (wild-type 972 h-); design: species or system yeast; micro tube dilution MIC in YES (± 1.2 M sorbitol), complete growth inhibition by turbidity; conditions: 48 h
T2 construct: 972 h-
Experimental: as §1

[4] = tested on: T3, S. pombe wild-type 972 h-; design: species or system whole yeast cells; micro-culture broth dilution MIC in YES at 30 C, turbidity, complete growth inhibition; conditions: Schizosaccharomyces pombe
T3 construct: 972 h-
Experimental: as §1, with “experiments. Next, the first generation of isochromanones (1E-16E) was also screened in YES medium (Table 5) and exerted a weaker antifungal potency than in YEPD medium and also than the second family of isochromanones in YES medium (17E-30E) (Table 6). The strains are partly different from the previously mentioned ones (Tables 5, 6) analyzing two wild type C. albicans strains because they behaved similarly in YEPD. It is remarkable that there was no effect against either the C. albicans, the S. cerevisiae, or the S. pombe wild-type strains, except with 30E.” for “experiments.”

[5] = tested on: T4, S. cerevisiae wild-type CVX12-3A; design: species or system whole yeast cells; micro-culture broth dilution MIC in YES at 30 C, turbidity, complete growth inhibition; conditions: Saccharomyces cerevisiae
T4 construct: CVX12-3A
Experimental: as §1, with “experiments. Next, the first generation of isochromanones (1E-16E) was also screened in YES medium (Table 5) and exerted a weaker antifungal potency than in YEPD medium and also than the second family of isochromanones in YES medium (17E-30E) (Table 6). The strains are partly different from the previously mentioned ones (Tables 5, 6) analyzing two wild type C. albicans strains because they behaved similarly in YEPD. It is remarkable that there was no effect against either the C. albicans, the S. cerevisiae, or the S. pombe wild-type strains, except with 30E.” for “experiments.”

Measured: MIC

CC[C@H](C)C[C@H](C)CCCCCCCCC(=O)N[C@H]1C[C@@H](O)[C@@H](NCCN)NC(=O)[C@@H]2[C@@H](O)CCN2C(=O)[C@H]([C@H](O)CCN)NC(=O)[C@H]([C@H](O)[C@@H](O)c2ccc(O)cc2)NC(=O)[C@@H]2C[C@@H](O)CN2C(=O)[C@H]([C@@H](C)O)NC1=O [caspofungin]
10 µg/mL: [3]; read-out: MIC | [4]; read-out: MIC
0.5 µg/mL: [1]; read-out: MIC | [5]; read-out: MIC
50 µg/mL: [2]; read-out: MIC

O=c1oc2ccc3ccccc3c2cc1-c1ccccc1CO [compound 12]
> 200 µg/mL: [1]; YES + 1.2 M sorbitol | [2]; YES + 1.2 M sorbitol | [3]; YES + 1.2 M sorbitol | [4]; YES medium | [5]; YES medium

O=c1oc2ccccc2cc1-c1ccccc1CO [compound 15]
> 200 µg/mL: [1]; YES + 1.2 M sorbitol | [2]; YES + 1.2 M sorbitol | [3]; YES + 1.2 M sorbitol | [4]; YES medium | [5]; YES medium

Source: paper PMC6689975, “Novel Cell Wall Antifungals Reveal a Special Synergistic Activity in pbr1 Mutants Resistant to the Glucan Synthesis Antifungals Papulacandins and Echinocandins” (Frontiers in Microbiology, 2019)
